From PubChem BioAssay (NCI)
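Step 1: Grow cells in 96-well plates. Step 2: Expose to compound for 48 hours at 5 concentrations. Step 3: Interpolate endpoints linearly; if unreached, use highest concentration. TGI is the concentration that stops growth completely.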

What was measured:
Experiment in all cases: NCI tumour cell line growth inhibition, 48 h
NCI-H522 lung = system: NCI-H522 lung
SK-OV-3 ovarian = system: SK-OV-3 ovarian
UACC-257 melanoma = system: UACC-257 melanoma
OVCAR-8 ovarian = system: OVCAR-8 ovarian
K-562 leukemia = system: K-562 leukemia
HT29 colon = system: HT29 colon
MCF7 breast = system: MCF7 breast
SK-MEL-2 melanoma = system: SK-MEL-2 melanoma
NCI-H23 lung = system: NCI-H23 lung
SK-MEL-28 melanoma = system: SK-MEL-28 melanoma
IGROV1 ovarian = system: IGROV1 ovarian
LOX IMVI melanoma = system: LOX IMVI melanoma
SNB-19 CNS = system: SNB-19 CNS
U251 CNS = system: U251 CNS
HOP-62 NSCLC = system: HOP-62 NSCLC
ACHN renal = system: ACHN renal
CAKI-1 renal = system: CAKI-1 renal
T-47D breast = system: T-47D breast
MALME-3M melanoma = system: MALME-3M melanoma
KM12 colon = system: KM12 colon
M14 melanoma = system: M14 melanoma
MDA-MB-435 = system: MDA-MB-435
BT-549 breast = system: BT-549 breast
HCC-2998 colon = system: HCC-2998 colon
SF-268 CNS = system: SF-268 CNS
OVCAR-4 ovarian = system: OVCAR-4 ovarian
MDA-MB-231 breast = system: MDA-MB-231 breast
NCI-H226 lung = system: NCI-H226 lung
SR leukemia = system: SR leukemia
NCI-H460 lung = system: NCI-H460 lung
RXF 393 renal = system: RXF 393 renal
UACC-62 melanoma = system: UACC-62 melanoma
CCRF-CEM leukemia = system: CCRF-CEM leukemia
MDA-N = system: MDA-N
DU-145 prostate = system: DU-145 prostate
HCT-116 colon = system: HCT-116 colon
A549 NSCLC = system: A549 NSCLC
SN12C renal = system: SN12C renal
SF-539 CNS = system: SF-539 CNS
SNB-75 CNS = system: SNB-75 CNS
HOP-92 NSCLC = system: HOP-92 NSCLC
OVCAR-3 ovarian = system: OVCAR-3 ovarian
SW-620 colon = system: SW-620 colon
NCI/ADR-RES ovarian = system: NCI/ADR-RES ovarian
SF-295 CNS = system: SF-295 CNS
TK-10 renal = system: TK-10 renal
OVCAR-5 ovarian = system: OVCAR-5 ovarian
UO-31 renal = system: UO-31 renal
PC-3 prostate = system: PC-3 prostate
HCT-15 colon = system: HCT-15 colon
MOLT-4 leukemia = system: MOLT-4 leukemia
786-0 renal = system: 786-0 renal
COLO 205 colon = system: COLO 205 colon
EKVX NSCLC = system: EKVX NSCLC
SK-MEL-5 melanoma = system: SK-MEL-5 melanoma
A498 renal = system: A498 renal
RPMI-8226 leukemia = system: RPMI-8226 leukemia
HL-60(TB) leukemia = system: HL-60(TB) leukemia
HS 578T breast = system: HS 578T breast

CC(=O)OC(C)(C)CCC(=O)[C@](C)(O)[C@H]1[C@H](O)C[C@@]2(C)[C@@H]3CC=C4C(C)=C(OC5OC(CO)C(O)C(O)C5O)C(=O)C[C@@H]4[C@]3(C)C(=O)C[C@]12C (some centres undefined)
TGI (NCI-H522 lung): > 100 µM | TGI (SK-OV-3 ovarian): > 100 µM | TGI (UACC-257 melanoma): > 100 µM | TGI (OVCAR-8 ovarian): > 100 µM | TGI (K-562 leukemia): > 100 µM | TGI (HT29 colon): > 100 µM | TGI (MCF7 breast): > 100 µM | TGI (SK-MEL-2 melanoma): > 100 µM | TGI (NCI-H23 lung): > 100 µM | TGI (SK-MEL-28 melanoma): > 100 µM | TGI (IGROV1 ovarian): > 100 µM | TGI (LOX IMVI melanoma): > 100 µM | TGI (SNB-19 CNS): > 100 µM | TGI (U251 CNS): > 100 µM | TGI (HOP-62 NSCLC): > 100 µM | TGI (ACHN renal): > 100 µM | TGI (CAKI-1 renal): > 100 µM | TGI (T-47D breast): > 100 µM | TGI (MALME-3M melanoma): > 100 µM | TGI (KM12 colon): > 100 µM | TGI (M14 melanoma): > 100 µM | TGI (MDA-MB-435): > 100 µM | TGI (BT-549 breast): > 100 µM | TGI (HCC-2998 colon): > 100 µM | TGI (SF-268 CNS): > 100 µM | TGI (OVCAR-4 ovarian): > 100 µM | TGI (MDA-MB-231 breast): > 100 µM | TGI (NCI-H226 lung): > 100 µM | TGI (SR leukemia): > 100 µM | TGI (NCI-H460 lung): > 100 µM | TGI (RXF 393 renal): > 100 µM | TGI (UACC-62 melanoma): > 100 µM | TGI (CCRF-CEM leukemia): > 100 µM | TGI (MDA-N): > 100 µM | TGI (DU-145 prostate): > 100 µM | TGI (HCT-116 colon): > 100 µM | TGI (A549 NSCLC): > 100 µM | TGI (SN12C renal): > 100 µM | TGI (SF-539 CNS): > 100 µM | TGI (SNB-75 CNS): > 100 µM | TGI (HOP-92 NSCLC): > 100 µM | TGI (OVCAR-3 ovarian): > 100 µM | TGI (SW-620 colon): > 100 µM | TGI (NCI/ADR-RES ovarian): > 100 µM | TGI (SF-295 CNS): > 100 µM | TGI (TK-10 renal): > 100 µM | TGI (OVCAR-5 ovarian): > 100 µM | TGI (UO-31 renal): > 100 µM | TGI (PC-3 prostate): > 100 µM | TGI (HCT-15 colon): > 100 µM | TGI (MOLT-4 leukemia): > 100 µM | TGI (786-0 renal): > 100 µM | TGI (COLO 205 colon): > 100 µM | TGI (EKVX NSCLC): > 100 µM | TGI (SK-MEL-5 melanoma): > 100 µM | TGI (A498 renal): > 100 µM

O=C1CS[C@@](CC(c2ccc(Cl)cc2)c2ccc(Cl)cc2)(c2ccc(Cl)cc2)N1
TGI (NCI-H522 lung): > 100 µM | TGI (SK-OV-3 ovarian): > 100 µM | TGI (UACC-257 melanoma): > 100 µM | TGI (RPMI-8226 leukemia): 35.6 µM | TGI (OVCAR-8 ovarian): > 100 µM | TGI (K-562 leukemia): > 100 µM | TGI (HT29 colon): > 100 µM | TGI (MCF7 breast): 26.4 µM | TGI (SK-MEL-2 melanoma): 87.6 µM | TGI (NCI-H23 lung): > 100 µM | TGI (SK-MEL-28 melanoma): > 100 µM | TGI (IGROV1 ovarian): > 100 µM | TGI (HL-60(TB) leukemia): 28.4 µM | TGI (LOX IMVI melanoma): 65.4 µM | TGI (SNB-19 CNS): > 100 µM | TGI (U251 CNS): 63.1 µM | TGI (HOP-62 NSCLC): 82 µM | TGI (ACHN renal): 89.4 µM | TGI (CAKI-1 renal): > 100 µM | TGI (T-47D breast): > 100 µM | TGI (MALME-3M melanoma): 82.6 µM | TGI (KM12 colon): > 100 µM | TGI (HS 578T breast): > 100 µM | TGI (M14 melanoma): > 100 µM | TGI (MDA-MB-435): > 100 µM | TGI (BT-549 breast): > 100 µM | TGI (HCC-2998 colon): > 100 µM | TGI (SF-268 CNS): > 100 µM | TGI (OVCAR-4 ovarian): > 100 µM | TGI (NCI-H226 lung): 42.2 µM | TGI (SR leukemia): 26.3 µM | TGI (NCI-H460 lung): > 100 µM | TGI (RXF 393 renal): 17.6 µM | TGI (UACC-62 melanoma): 63.1 µM | TGI (CCRF-CEM leukemia): > 100 µM | TGI (MDA-N): > 100 µM | TGI (DU-145 prostate): > 100 µM | TGI (HCT-116 colon): > 100 µM | TGI (A549 NSCLC): > 100 µM | TGI (SN12C renal): 5.42 µM | TGI (SF-539 CNS): 64.4 µM | TGI (SNB-75 CNS): > 100 µM | TGI (HOP-92 NSCLC): 75 µM | TGI (OVCAR-3 ovarian): 38 µM | TGI (SW-620 colon): > 100 µM | TGI (NCI/ADR-RES ovarian): > 100 µM | TGI (SF-295 CNS): 47.5 µM | TGI (TK-10 renal): > 100 µM | TGI (OVCAR-5 ovarian): > 100 µM | TGI (UO-31 renal): > 100 µM | TGI (PC-3 prostate): 65.5 µM | TGI (HCT-15 colon): > 100 µM | TGI (MOLT-4 leukemia): 45 µM | TGI (786-0 renal): 71.2 µM | TGI (COLO 205 colon): 17.9 µM | TGI (EKVX NSCLC): > 100 µM | TGI (SK-MEL-5 melanoma): 34.6 µM | TGI (A498 renal): 45.8 µM
